In brackets after ≈: the same amount, converted by molar mass.
The molecules below were run on potato 5-lipoxygenase (assay: 5-Lipoxygenase enzyme inhibitory activity). Conditions: 10 μg/ml.
Assay type: biochemical
Method: 5-Lipoxygenase enzyme inhibitory activity was measured using the method of Schewe et al. (Adv Enzymol, Vol 58, 191-272, 1986), modified by Reddanna et. al., (Methods of Enzymology, Vol 187, 268-277, 1990). The assay mixture contained 80 μM linoleic acid and sufficient amount of potato 5-lipoxygenase in 50 mM phosphate buffer (pH 6.3). The reaction was initiated by the addition of enzyme buffer mix to linoleic acid and the enzyme activity was monitored as the increase in absorbance at 234 nm. The reaction was monitored for 120 sec and the inhibitory potential of the test substances (29, 31, 33, 34, 35, 36, 39, 40, 43, 44, 46, 47, 48, 49, 50, 54, 57, 59, 62 & 63) was measured by incubating various concentrations of test substances two minutes before the addition of linoleic acid. All assays were performed three times. Percentage inhibition was calculated by comparing the slope of the curve obtained for test substances with that of the control.

| SMILES | % inhibition at 10 μg/ml [%] |
| --- | --- |
| CCCCNC(=O)[C@]1(C)C2CC[C@]3(C)C(C(=O)C=C4C5[C@@H](C)[C@H](C)CC[C@]5(C)CC[C@]43C)[C@@]2(C)CC[C@H]1OC(C)=O (stereo partly shown) [Analog 29] | 33.29 |
| CC(=O)O[C@@H]1CC[C@@]2(C)C(CC[C@]3(C)C2C(=O)C=C2C4[C@@H](C)[C@H](C)CC[C@]4(C)CC[C@]23C)[C@@]1(C)C(=O)N1CCN(CCO)CC1 (stereo partly shown) [Analog 39] | 32.11 |
| CC(=O)O[C@@H]1CC[C@@]2(C)C(CC[C@]3(C)C2C(=O)C=C2C4[C@@H](C)[C@H](C)CC[C@]4(C)CC[C@]23C)[C@@]1(C)C(=O)n1ccnc1 (stereo partly shown) [Analog 40] | 18.40 |
| CNC(=O)[C@]1(C)C2CC[C@]3(C)C(C(=O)C=C4C5[C@@H](C)[C@H](C)CC[C@]5(C)CC[C@]43C)[C@@]2(C)CC[C@H]1OC(C)=O (stereo partly shown) [Analog 43] | 14.57 |
| CC(=O)O[C@@H]1CC[C@@]2(C)C(CC[C@]3(C)C2C(=O)C=C2C4[C@@H](C)[C@H](C)CC[C@]4(C)CC[C@]23C)[C@@]1(C)C(=O)Nc1ccccc1Br (stereo partly shown) [Analog 44] | 19.88 |
| CC(=O)O[C@@H]1CC[C@@]2(C)C(CC[C@]3(C)C2C(=O)C=C2C4[C@@H](C)[C@H](C)CC[C@]4(C)CC[C@]23C)[C@@]1(C)C(=O)Nc1ccc(O)cc1 (stereo partly shown) [Analog 46] | 19.01 |
| CC(=O)O[C@@H]1CC[C@@]2(C)C(CC[C@]3(C)C2C(=O)C=C2C4[C@@H](C)[C@H](C)CC[C@]4(C)CC[C@]23C)[C@@]1(C)C(=O)NNc1ccccc1 (stereo partly shown) [Analog 47] | 35.94 |
| CC(=O)O[C@@H]1CC[C@@]2(C)C(CC[C@]3(C)C2C(=O)C=C2C4[C@@H](C)[C@H](C)CC[C@]4(C)CC[C@]23C)[C@@]1(C)C(=O)NCCN(CCO)CCO (stereo partly shown) [Analog 49] | 31.55 |
| CC(=O)O[C@@H]1CC[C@@]2(C)C(CC[C@]3(C)C2CC=C2C4[C@@H](C)[C@H](C)CC[C@]4(C)CC[C@]23C)[C@@]1(C)C(=O)N1CCNCC1 (stereo partly shown) [Analog 54] | 35.69 |
| C[C@@H]1CC[C@]2(C)CC[C@]3(C)C(=CC(Cl)=C4[C@@]5(C)CC[C@@H](O)[C@](C)(C(=O)O)C5CC[C@]43C)C2[C@H]1C (stereo partly shown) [Analog 59] | 21.46 |
| CC(=O)O[C@@H]1CC[C@]2(C)C3=C(Cl)C=C4C5[C@@H](C)[C@H](C)CC[C@]5(C)CC[C@@]4(C)[C@]3(C)CCC2[C@@]1(C)C(=O)NN (stereo partly shown) [Analog 62] | 36.26 |
| CC(=O)O[C@@H]1CC[C@]2(C)C3=C(Cl)C=C4C5[C@@H](C)[C@H](C)CC[C@]5(C)CC[C@@]4(C)[C@]3(C)CCC2[C@@]1(C)C(=O)N1CCNCC1 (stereo partly shown) [Analog 63] | 36.20 |

Same assay, conditions: 25 μg/ml

| SMILES | % inhibition at 25 μg/ml [%] |
| --- | --- |
| CC(=O)O[C@@H]1CC[C@@]2(C)C(CC[C@]3(C)C2C(=O)C=C2C4[C@@H](C)[C@H](C)CC[C@]4(C)CC[C@]23C)[C@@]1(C)C(=O)N1CCN(CCO)CC1 (stereo partly shown) [Analog 39] | 48.69 |
| CC(=O)O[C@@H]1CC[C@@]2(C)C(CC[C@]3(C)C2C(=O)C=C2C4[C@@H](C)[C@H](C)CC[C@]4(C)CC[C@]23C)[C@@]1(C)C(=O)n1ccnc1 (stereo partly shown) [Analog 40] | 40.47 |
| CNC(=O)[C@]1(C)C2CC[C@]3(C)C(C(=O)C=C4C5[C@@H](C)[C@H](C)CC[C@]5(C)CC[C@]43C)[C@@]2(C)CC[C@H]1OC(C)=O (stereo partly shown) [Analog 43] | 30.90 |
| CC(=O)O[C@@H]1CC[C@@]2(C)C(CC[C@]3(C)C2C(=O)C=C2C4[C@@H](C)[C@H](C)CC[C@]4(C)CC[C@]23C)[C@@]1(C)C(=O)Nc1ccccc1Br (stereo partly shown) [Analog 44] | 30.02 |
| CC(=O)O[C@@H]1CC[C@@]2(C)C(CC[C@]3(C)C2C(=O)C=C2C4[C@@H](C)[C@H](C)CC[C@]4(C)CC[C@]23C)[C@@]1(C)C(=O)Nc1ccc(O)cc1 (stereo partly shown) [Analog 46] | 30.56 |
| CC(=O)O[C@@H]1CC[C@@]2(C)C(CC[C@]3(C)C2C(=O)C=C2C4[C@@H](C)[C@H](C)CC[C@]4(C)CC[C@]23C)[C@@]1(C)C(=O)NNc1ccccc1 (stereo partly shown) [Analog 47] | 54.10 |
| CC(=O)O[C@@H]1CC[C@@]2(C)C(CC[C@]3(C)C2C(=O)C=C2C4[C@@H](C)[C@H](C)CC[C@]4(C)CC[C@]23C)[C@@]1(C)C(=O)NCCN(CCO)CCO (stereo partly shown) [Analog 49] | 47.02 |
| CC(=O)O[C@@H]1CC[C@@]2(C)C(CC[C@]3(C)C2CC=C2C4[C@@H](C)[C@H](C)CC[C@]4(C)CC[C@]23C)[C@@]1(C)C(=O)N1CCNCC1 (stereo partly shown) [Analog 54] | 64.24 |
| C[C@@H]1CC[C@]2(C)CC[C@]3(C)C(=CC(Cl)=C4[C@@]5(C)CC[C@@H](O)[C@](C)(C(=O)O)C5CC[C@]43C)C2[C@H]1C (stereo partly shown) [Analog 59] | 39.24 |
| CC(=O)O[C@@H]1CC[C@]2(C)C3=C(Cl)C=C4C5[C@@H](C)[C@H](C)CC[C@]5(C)CC[C@@]4(C)[C@]3(C)CCC2[C@@]1(C)C(=O)N1CCNCC1 (stereo partly shown) [Analog 63] | 57.86 |

What follows are molecules tested on MDA-MB-231 (assay: MTT cell proliferation assay, MDA-MB-231). Conditions: Homo sapiens, MDA-MB-231; Table 4.
Assay type: cell-based, human
Method: (§1) MTT [3-(4,5-dimethylthiazol-2-yl)-2,5-diphenyltetrazolium bromide] incorporation based cell proliferation assay was performed as described previously (Reference). The cytotoxic efficacy of some analogs was evaluated in different cell lines by MTT cell proliferation assay kit (Roche Applied Sciences, Germany). The assay was carried out according to the instruction provided by the vendor. Briefly, in brief, equal numbers of cells was plated in 96-well flat-bottomed plates in 100 μl of medium and were exposed to different analogs selected from 1 to 63 at various concentrations up to 10 μg/ml for a period of three days. Vehicle control culture wells received only a maximum of 0.5% DMSO. Thereafter, 0.5 mg/ml of MTT reagent was added to each well and the microplate was incubated further for 4 h at 37° C. in presence of 5% CO2. Finally, the cells were solubilized by adding solubilizing solution and allowed to incubate at 37° C. overnight. After complete solubilization of the formazan crystals the absorbance was read at 540 nm in a microplate reader (BioRad, USA). The results (mean OD±SD) obtained from quadruplicate wells were used in calculation to determine the inhibition of cell proliferation (50% of inhibitory concentration, IC50) of the test compounds.
(§2) The cytotoxic properties of some analogs were evaluated by MTT incorporation assay. The methodology of the assay procedure was the same as mentioned in example 41.

| SMILES | IC50 [µg/mL] |
| --- | --- |
| CC(=O)O[C@@H]1CC[C@@]2(C)C(CC[C@]3(C)C2C(=O)C=C2C4[C@@H](C)[C@H](C)CC[C@]4(C)CC[C@]23C)[C@@]1(C)C(=O)Nc1ccccc1Br (stereo partly shown) [Analog 44] | 28.6 (≈ 43 µM) |

Same assay, conditions: Homo sapiens, MDA-MB-231; Table 4; 10 μg/ml; read-out: Percentage Inhibition of cell proliferation MDA-MB-231

| SMILES | inhibition at 10 µg/mL [%] |
| --- | --- |
| CC(=O)O[C@@H]1CC[C@@]2(C)C(CC[C@]3(C)C2C(=O)C=C2C4[C@@H](C)[C@H](C)CC[C@]4(C)CC[C@]23C)[C@@]1(C)C(=O)n1ccnc1 (stereo partly shown) [Analog 40] | 31 |
| CNC(=O)[C@]1(C)C2CC[C@]3(C)C(C(=O)C=C4C5[C@@H](C)[C@H](C)CC[C@]5(C)CC[C@]43C)[C@@]2(C)CC[C@H]1OC(C)=O (stereo partly shown) [Analog 43] | 47.8 |
| CC(=O)O[C@@H]1CC[C@@]2(C)C(CC[C@]3(C)C2C(=O)C=C2C4[C@@H](C)[C@H](C)CC[C@]4(C)CC[C@]23C)[C@@]1(C)C(=O)NNc1ccccc1 (stereo partly shown) [Analog 47] | 39 |

Same assay, conditions: Table 2; 10 ug/ml

| SMILES | Inhibition of cell proliferation MDA-MB-231, % at 10 ug/ml [% at 10] |
| --- | --- |
| CCCCNC(=O)[C@]1(C)C2CC[C@]3(C)C(C(=O)C=C4C5[C@@H](C)[C@H](C)CC[C@]5(C)CC[C@]43C)[C@@]2(C)CC[C@H]1OC(C)=O (stereo partly shown) [Analog 29] | 36 |

Same assay, conditions: Table 4; 10 μg/ml

| SMILES | Percentage Inhibition of cell proliferation MDA-MB-231 |
| --- | --- |
| CCCCNC(=O)[C@]1(C)C2CC[C@]3(C)C(C(=O)C=C4C5[C@@H](C)[C@H](C)CC[C@]5(C)CC[C@]43C)[C@@]2(C)CC[C@H]1OC(C)=O (stereo partly shown) [Analog 29] | 36% at 10 μg/ml |
| CC(=O)O[C@@H]1CC[C@@]2(C)C(CC[C@]3(C)C2C(=O)C=C2C4[C@@H](C)[C@H](C)CC[C@]4(C)CC[C@]23C)[C@@]1(C)C(=O)NCCN(CCO)CCO (stereo partly shown) [Analog 49] | 21.4 at 10 μg/ml % |

These molecules were tested on MCF-7 (assay: MTT cell proliferation assay, MCF-7). Conditions: Homo sapiens, MCF7; Table 4.
Assay type: cell-based, human
Method: as §1, §2

| SMILES | IC50 [µg/mL] |
| --- | --- |
| CC(=O)O[C@@H]1CC[C@@]2(C)C(CC[C@]3(C)C2C(=O)C=C2C4[C@@H](C)[C@H](C)CC[C@]4(C)CC[C@]23C)[C@@]1(C)C(=O)Nc1ccccc1Br (stereo partly shown) [Analog 44] | 24.1 (≈ 36.1 µM) |

Same assay, conditions: Homo sapiens, MCF7; Table 4; 10 μg/ml; read-out: Percentage Inhibition of cell proliferation MCF-7

| SMILES | inhibition at 10 µg/mL [%] |
| --- | --- |
| CC(=O)O[C@@H]1CC[C@@]2(C)C(CC[C@]3(C)C2C(=O)C=C2C4[C@@H](C)[C@H](C)CC[C@]4(C)CC[C@]23C)[C@@]1(C)C(=O)n1ccnc1 (stereo partly shown) [Analog 40] | 2.7 |
| CNC(=O)[C@]1(C)C2CC[C@]3(C)C(C(=O)C=C4C5[C@@H](C)[C@H](C)CC[C@]5(C)CC[C@]43C)[C@@]2(C)CC[C@H]1OC(C)=O (stereo partly shown) [Analog 43] | 12.6 |
| CC(=O)O[C@@H]1CC[C@@]2(C)C(CC[C@]3(C)C2C(=O)C=C2C4[C@@H](C)[C@H](C)CC[C@]4(C)CC[C@]23C)[C@@]1(C)C(=O)Nc1ccc(O)cc1 (stereo partly shown) [Analog 46] | 39 |
| CC(=O)O[C@@H]1CC[C@@]2(C)C(CC[C@]3(C)C2C(=O)C=C2C4[C@@H](C)[C@H](C)CC[C@]4(C)CC[C@]23C)[C@@]1(C)C(=O)NNc1ccccc1 (stereo partly shown) [Analog 47] | 10 |

Same assay, conditions: Table 2; 10 ug/ml

| SMILES | Inhibition of cell proliferation MCF-7, % at 10 ug/ml [% at] |
| --- | --- |
| CCCCNC(=O)[C@]1(C)C2CC[C@]3(C)C(C(=O)C=C4C5[C@@H](C)[C@H](C)CC[C@]5(C)CC[C@]43C)[C@@]2(C)CC[C@H]1OC(C)=O (stereo partly shown) [Analog 29] | 38.3 |

Same assay, conditions: Table 4; 10 μg/ml

| SMILES | Percentage Inhibition of cell proliferation MCF-7 |
| --- | --- |
| CCCCNC(=O)[C@]1(C)C2CC[C@]3(C)C(C(=O)C=C4C5[C@@H](C)[C@H](C)CC[C@]5(C)CC[C@]43C)[C@@]2(C)CC[C@H]1OC(C)=O (stereo partly shown) [Analog 29] | 38.3 at 10 μg/ml % |
| CC(=O)O[C@@H]1CC[C@@]2(C)C(CC[C@]3(C)C2C(=O)C=C2C4[C@@H](C)[C@H](C)CC[C@]4(C)CC[C@]23C)[C@@]1(C)C(=O)NCCN(CCO)CCO (stereo partly shown) [Analog 49] | 40.9% at 10 ug/ml |
